Data: patent US7244743B2, “Non-peptidic BRS-3 agonists” (Solvay Pharmaceuticals GmbH, priority 2002, dated 2007)
Square brackets hold non-standard residues; d marks the D form. Peptide text beside a SMILES is read from it. * marks the point of attachment. NHPhenethyl = c1ccc(CCN*)cc1; PhAc = O=C(Cc1ccccc1)*

Experiments:
[1] = target: T1, human BRS-3 (subtype 3 of the human bombesin receptor) (Homo sapiens, UniProt P32247); assay: FLIPR test: agonistic activity on BRS-3 (Ca2+ fluorescence, Fluo4) in transfected CHO cells; format: cell-based; conditions: for EC50: CHO-K1 cells co-expressing human BRS-3 and human Gα16, 50% activation relative to maximum response of nonapeptide [D-Phe6,β-Ala11,Phe13,Nle14]Bn(6-14) (=100%)
T1 construct: expressed in transfected cells; host or cells: CHO-K1 cells, stably transfected with RD-HGA16 (human Gα16) and pcDNA3.1(-)-BRS-3; single-cell clone selected
T1 sequence (P32247 1-399): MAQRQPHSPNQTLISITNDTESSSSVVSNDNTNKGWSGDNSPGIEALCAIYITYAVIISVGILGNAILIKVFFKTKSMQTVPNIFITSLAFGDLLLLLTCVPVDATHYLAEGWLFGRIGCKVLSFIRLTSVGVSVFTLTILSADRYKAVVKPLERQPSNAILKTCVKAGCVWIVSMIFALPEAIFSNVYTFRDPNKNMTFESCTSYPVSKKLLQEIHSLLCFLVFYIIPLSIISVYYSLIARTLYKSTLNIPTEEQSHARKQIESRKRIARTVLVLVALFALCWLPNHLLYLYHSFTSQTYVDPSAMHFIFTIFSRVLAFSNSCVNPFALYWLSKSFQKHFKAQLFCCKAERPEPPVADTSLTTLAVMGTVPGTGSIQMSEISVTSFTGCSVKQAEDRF
Source text: For this, CHO cells (=“Chinese hamster ovary cells”) initially were transfected in known manner with an expression vector for the subtype 3 of the human bombesin receptor, i.e. BRS-3.
The cDNA of the human BRS-3 (nucleotide sequence under GenBank Accession No. L08893) was excised from the plasmid vector pGEM4 (from Promega, USA) using the restriction endonuclease EcoRI and was subcloned into the expression vector pcDNA3.1(−) (from Invitrogen, USA). CHO-K1 cells, which were already stably transfected with the expression vector RD-HGA16, which bears the cDNA sequence of the human Gα16 protein (nucleotide sequence under GenBank Accession No. M63904), were placed in sample plates with 24 sample wells (“24-well plate”) and incubated overnight under sterile conditions in an air-humidified incubator at 37° C. and 5% CO2 in F-12 medium plus Glutamax-I (from GibcoBRL, cat. No. 31765), to which 10%-strength foetal calf serum (inactivated at 56° C. for 1 h, from GibcoBRL), 25 μg/ml gentamicin (from GibcoBRL) and 0.2 mg/ml hygromycin B (from GibcoBRL) had been added. The next day, the cells were transfected with the BRS-3 expression vector by adding, using the “Effectene Transfection Reagent” (from Qiagen), 12 μl of a solution containing 0.3 μg/μl DNA of the expression vector per sample well. One day after transfection, the culture medium was replaced by selection medium. For this, the transfected cells, which each simultaneously express BRS-3 and the human Gα16 protein, were cultivated under sterile conditions at 37° C. and 5% CO2 in F-12 medium plus Glutamax-I (from GibcoBRL, cat. No. 31765), to which 10%-strength foetal calf serum (inactivated at 56° C. for 1 h, from GibcoBRL), 25 μg/ml gentamicin (from GibcoBRL), 0.2 mg/ml hygromycin B (from GibcoBRL) and 0.5 mg/ml geneticin (from GibcoBRL) had been added. To optimize the cell test, the cells with the highest receptor expression rate were selected. For this, the transfected cells were diluted 1:30,000 with the selection medium described above and were placed in sample plates with 96 sample wells (“96-well plate”). The cells were incubated overnight at 37° C. and 5% CO2, then those sample wells which contained only an individual cell were selected. These cells were first started in sample plates with 24 sample wells (“24-well plate”) and then cultivated in Costar plastic flasks (first 25 ml and then 225 ml). The BRS-3 receptor expression of the respective individual cell clone was estimated by determination of the EC50 value of the synthetic nonapeptide [D-Phe^6,β-Ala^11,Phe^13,Nle^14]Bn(6-14) as ligand (for performance of the test see below). The transfected cells were stored at −80° C. in aliquots of 1.8 ml medium each with 10% dimethyl sulfoxide (=DMSO) (cell concentration 1×10^6 cells/ml). For cultivation, a frozen aliquot was heated to 37° C., transferred into a Costar plastic flask (225 ml) and diluted with 50 ml of the selection medium described above. The medium was first changed once after 30 minutes' incubation. On each following first to third day, the medium was removed, the adherent cells (40-95% confluence) were washed with PBS Dulbecco's (from GibcoBRL) and detached from the bottom of the flask by a 2-minute treatment with trypsin-EDTA solution (from GibcoBRL) at 37° C. If the cells were to be cultivated further, they were transferred into a new plastic flask with fresh medium. If experiments were to be carried out with the cells, the cells were transferred into Costar sample plates with 96 sample wells, a clear baseplate and cover (“Costar 96-well assay plates”, from Coming), once the cell concentration had been set to 1.2×10^4 cells/ml.
BRS-3 is coupled via G-proteins to the Ca^2+-signal transduction path of the CHO cell. If an agonist binds to the receptor, the phospholipase C is activated via the G-protein, and then in turn catalyses the synthesis of water-soluble inositol phosphates. […]

| Compound | EC50 [1] | melting point | peptide concentration at which the maximum change in fluorescence had already been observed ([1]; reference dilution series on each plate, adopted as 100% value) |
| --- | --- | --- | --- |
| O=C(Cc1ccc(Cl)cc1)NNC(=O)NC(Cc1c[nH]c2ccccc12)C(=O)NCCc1ccccc1 (centres unmarked) [Example 28] | 0.19 nM |  |  |
| O=C(N/N=C/c1ccco1)N[C@H](Cc1c[nH]c2ccccc12)C(=O)NCCc1ccccc1 [Example 6, N1-phenethyl-(2R)-2-[N′-(furan-2-ylmethylene)-hydrazino]-carboxamido-3-(1H-3-indolyl)-propanamide] | 1.5 nM | 100 to 101 °C |  |
| O=C(CNCc1ccccc1)NC(Cc1c[nH]c2ccccc12)C(=O)NCCc1ccccc1 (centres unmarked) [Example 21] | 21 nM |  |  |
| O=C(CNCc1cccnc1)NC(Cc1c[nH]c2ccccc12)C(=O)NCCc1ccccc1 (centres unmarked) [Example 23] | 21 nM |  |  |
| O=C(CNCCc1ccccc1)NC(Cc1c[nH]c2ccccc12)C(=O)NCCc1ccccc1 (centres unmarked) [Example 24] | 17 nM |  |  |
| [D-Phe^6,β-Ala^11,Phe^13,Nle^14]Bn(6-14) [nonapeptide, reference compound] |  |  | ~16 µM |
| CC(NCc1ccc(Cl)cc1)C(=O)N[C@H](Cc1c[nH]c2ccccc12)C(=O)NCCc1ccccc1 (mixture of isomers) [Example 3, N1-phenethyl-(2R)-2-{1-[(4-chlorobenzyl)-amino]-ethylcarboxamido}-3-(1H-3-indolyl)-propanamide] | 4 nM | 107 to 110 °C |  |
| O=C(Cc1cccnc1)NNC(=O)N[C@H](Cc1c[nH]c2ccccc12)C(=O)NCCc1ccccc1 [Example 4, N1-phenethyl-(2R)-2-{N′-[2-(3-pyridyl)-ethanoyl]-hydrazino}-carboxamido-3-(1H-3-indolyl)-propanamide] | 1.4 nM | 116 to 120 °C |  |
| C[C@H](NC(=O)Cc1ccccc1)C(=O)N[C@H](Cc1c[nH]c2ccccc12)C(=O)NCCc1ccccc1 [Example 2, N1-phenethyl-(2R)-2-[(1S)-1-(benzylcarboxamido)-ethyl]-carboxamido-3-(1H-3-indolyl)-propanamide] (PhAc-Ala-[dW]-NHPhenethyl) | 2.1 nM | 205 to 207 °C |  |
| CC(NC(=O)Cc1cccnc1)C(=O)NC(Cc1c[nH]c2ccccc12)C(=O)NCCc1ccccc1 (centres unmarked) [Example 19] | 32 nM |  |  |
| CC(NCCc1ccccc1)C(=O)NC(Cc1c[nH]c2ccccc12)C(=O)NCCc1ccccc1 (centres unmarked) [Example 26] | 25 nM |  |  |
| O=C(CNCc1ccc(Cl)cc1)NC(Cc1c[nH]c2ccccc12)C(=O)NCCc1ccccc1 (centres unmarked) [Example 22] | 2.9 nM |  |  |
| O=C(CN1CCC(Cc2ccccc2)CC1)N[C@H](Cc1c[nH]c2ccccc12)C(=O)NCCc1ccccc1 [Example 7, N1-phenethyl-(2R)-2-[(4-benzylpiperidino)-methyl]-carboxamido-3-(1H-3-indolyl)-propanamide] | 30 nM | 73 to 75 °C |  |
| O=C(Cc1cc2ccccc2[nH]1)NNC(=O)NC(Cc1c[nH]c2ccccc12)C(=O)NCCc1ccccc1 (centres unmarked) [Example 30] | 2.2 nM |  |  |
| O=C(NNCc1ccc(Cl)cc1)N[C@H](Cc1c[nH]c2ccccc12)C(=O)NCCc1ccccc1 [Example 5, N1-phenethyl-(2R)-2-[N′-(4-chlorobenzyl)-hydrazino]-carboxamido-3-(1H-3-indolyl)-propanamide] | 6 nM | 75 to 80 °C |  |
| O=C(Cc1ccccc1)NNC(=O)NC(Cc1c[nH]c2ccccc12)C(=O)NCCc1ccccc1 (centres unmarked) [Example 27] | 3.1 nM |  |  |
| NC(=O)CCC(NC(=O)Cc1cc2ccccc2[nH]1)C(=O)NC(Cc1c[nH]c2ccccc12)C(=O)NCCc1ccccc1 (centres unmarked) [Example 15] | 57 nM |  |  |
